Results reported in PubChem BioAssay (NCI).
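Five concentrations, 48 hours, 96-well plates. TGI is the concentration that stops growth completely.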

Tests used:
Assay in all cases: DTP human tumour cell line panel, 48 h
SR leukemia = test system: SR leukemia
SW-620 colon = test system: SW-620 colon
HCT-15 colon = test system: HCT-15 colon
M14 melanoma = test system: M14 melanoma
SNB-75 CNS = test system: SNB-75 CNS
MALME-3M melanoma = test system: MALME-3M melanoma
EKVX NSCLC = test system: EKVX NSCLC
U251 CNS = test system: U251 CNS
HOP-62 NSCLC = test system: HOP-62 NSCLC
OVCAR-8 ovarian = test system: OVCAR-8 ovarian
SF-295 CNS = test system: SF-295 CNS
DU-145 prostate = test system: DU-145 prostate
NCI/ADR-RES ovarian = test system: NCI/ADR-RES ovarian

CC(=O)CN=C(C)NNc1ccc([N+](=O)[O-])cc1[N+](=O)[O-]
TGI (SR leukemia): > 100 µM
TGI (SW-620 colon): > 100 µM
TGI (HCT-15 colon): > 100 µM
TGI (M14 melanoma): > 100 µM
TGI (SNB-75 CNS): > 100 µM
TGI (MALME-3M melanoma): > 100 µM
TGI (EKVX NSCLC): > 100 µM
TGI (U251 CNS): > 100 µM
TGI (HOP-62 NSCLC): > 100 µM
TGI (OVCAR-8 ovarian): > 100 µM
TGI (SF-295 CNS): > 100 µM
TGI (DU-145 prostate): > 100 µM
TGI (NCI/ADR-RES ovarian): > 100 µM

COC(=O)[C@]1(c2cc3ccccc3n2S(=O)(=O)c2ccccc2)CC2CCC1NC2 (stereo partly specified)
TGI (SR leukemia): 19.2 µM
TGI (SW-620 colon): 31.3 µM
TGI (HCT-15 colon): 40.5 µM
TGI (M14 melanoma): 27.2 µM
TGI (SNB-75 CNS): 30.5 µM
TGI (MALME-3M melanoma): 30.5 µM
TGI (EKVX NSCLC): 30.1 µM
TGI (U251 CNS): 26.4 µM
TGI (HOP-62 NSCLC): 34 µM
TGI (OVCAR-8 ovarian): 32.3 µM
TGI (SF-295 CNS): 31.2 µM
TGI (DU-145 prostate): 30.4 µM
TGI (NCI/ADR-RES ovarian): 44.6 µM

O=C1c2c(Br)sc(Br)c2[C@H]2NC(=S)O[C@@H]12
TGI (SR leukemia): 15.3 µM
TGI (SW-620 colon): 11.3 µM
TGI (HCT-15 colon): 16.6 µM
TGI (M14 melanoma): 30.5 µM
TGI (SNB-75 CNS): 34.7 µM
TGI (MALME-3M melanoma): 29.8 µM
TGI (EKVX NSCLC): 39.5 µM
TGI (U251 CNS): 26.7 µM
TGI (HOP-62 NSCLC): 34.9 µM
TGI (OVCAR-8 ovarian): 24.5 µM
TGI (SF-295 CNS): 45.5 µM
TGI (DU-145 prostate): 30.7 µM
TGI (NCI/ADR-RES ovarian): 45.8 µM

COc1cc(CNC(=O)CCCCCCCC/C=C/Br)ccc1O
TGI (SR leukemia): > 10 µM
TGI (SW-620 colon): > 10 µM
TGI (HCT-15 colon): > 10 µM
TGI (M14 melanoma): > 10 µM
TGI (SNB-75 CNS): > 10 µM
TGI (MALME-3M melanoma): > 10 µM
TGI (EKVX NSCLC): > 10 µM
TGI (U251 CNS): > 10 µM
TGI (HOP-62 NSCLC): > 10 µM
TGI (OVCAR-8 ovarian): > 10 µM
TGI (SF-295 CNS): > 10 µM
TGI (DU-145 prostate): > 10 µM
TGI (NCI/ADR-RES ovarian): > 10 µM

CC[C@H](CCCCC1CC[C@@H]2CC(=O)C[C@H]12)OC (stereo partly specified)
TGI (SR leukemia): > 100 µM
TGI (SW-620 colon): > 100 µM
TGI (HCT-15 colon): > 100 µM
TGI (M14 melanoma): > 100 µM
TGI (SNB-75 CNS): > 100 µM
TGI (MALME-3M melanoma): > 100 µM
TGI (EKVX NSCLC): > 100 µM
TGI (U251 CNS): > 100 µM
TGI (HOP-62 NSCLC): > 100 µM
TGI (OVCAR-8 ovarian): > 100 µM
TGI (SF-295 CNS): > 100 µM
TGI (DU-145 prostate): > 100 µM
TGI (NCI/ADR-RES ovarian): > 100 µM

Cc1ccc(S(=O)(=O)n2ccn3c(=O)cc(C)nc23)cc1
TGI (SR leukemia): > 10 µM
TGI (SW-620 colon): > 10 µM
TGI (HCT-15 colon): > 10 µM
TGI (M14 melanoma): > 10 µM
TGI (SNB-75 CNS): > 10 µM
TGI (MALME-3M melanoma): > 10 µM
TGI (EKVX NSCLC): > 10 µM
TGI (U251 CNS): > 10 µM
TGI (HOP-62 NSCLC): > 10 µM
TGI (OVCAR-8 ovarian): > 10 µM
TGI (SF-295 CNS): > 10 µM
TGI (DU-145 prostate): > 10 µM
TGI (NCI/ADR-RES ovarian): > 10 µM

COC(=O)c1ccccc1CC1Cc2cc3c(cc2C1)CCC3
TGI (SR leukemia): 29.2 µM
TGI (SW-620 colon): > 100 µM
TGI (HCT-15 colon): > 100 µM
TGI (M14 melanoma): 93.4 µM
TGI (SNB-75 CNS): > 100 µM
TGI (MALME-3M melanoma): 52 µM
TGI (EKVX NSCLC): > 100 µM
TGI (U251 CNS): > 100 µM
TGI (HOP-62 NSCLC): > 100 µM
TGI (OVCAR-8 ovarian): > 100 µM
TGI (SF-295 CNS): > 100 µM
TGI (DU-145 prostate): > 100 µM
TGI (NCI/ADR-RES ovarian): > 100 µM
